Literature values, collected in patent US20170003257A1, “WETNESS INDICATOR WITH TWO COLORANTS AND TWO STABILIZERS” (The Procter & Gamble Company, priority 2015, published 2017).
Read-outs that look alike come from different tables or passages of the source.

How the values were obtained:
[1] = Table 2 stabilizers; for pKa (1): first pKa; for pKa (2): second pKa; for pKa (3): third pKa

Row | Compound | pKa (1) [1] | pKa (2) [1] | further results
1 | OB(O)O [Boric acid] | 9.3 | 12.7 | pKa (3) [1]: 13.8
2 | O=C(O)CN(CCN(CC(=O)O)CC(=O)O)CC(=O)O [Ethylenediaminetetraacetic acid (EDTA), Ethylenediaminetetraacetic acid] | −0.21 | 1.5 | pKa (5) ([1]; fifth pKa): 6.7; pKa (4) ([1]; fourth pKa): 3.1; pKa (3) [1]: 2.2
3 | Cc1cc(O)c(C(C)C)cc1C1(c2cc(C(C)C)c(O)cc2C)OC(=O)c2ccccc21 [Thymolphthalein] | – | – | pKa (Table 1 colorants): 9.8
4 | O=C(O)c1cncc(C(=O)O)c1 [Dinicotinic acid] | 2.8 | – | –
5 | O=C(O)CCCCCC(=O)O [Heptanedioic acid] | 4.7 | – | –
6 | NC(C(=O)O)c1ccccc1 (stereo not shown) [Phenylglycine] | 1.8 | 4.4 | –
7 | C[N+](C)(C)CC(=O)O [Betaine] | 1.83 | – | –
8 | Oc1ccccc1O [Pyrocatechol] | 9.4 | 12.8 | –
9 | O=C1O[C@H]([C@@H](O)CO)C(O)=C1O [Ascorbic acid] | – | 11.8 | –
10 | O=S(O)O [Sulfurous acid] | – | 7.2 | –
11 | CC(C)CCC(=O)O [4-Methylpentanoic acid] | 4.8 | – | –
12 | CC(=O)CC(=O)O [Acetoacetic acid] | 3.6 | – | –
13 | CN(C)c1ccc(C(=C2C=CC(=[N+](C)C)C=C2)c2ccccc2)cc1 [Malachite Green] | – | – | pKa (Alkaline pH range): 12.8
14 | O=C(O)C(O)CO (stereo not shown) [Glyceric acid] | 3.5 | – | –
15 | NCCc1ccc(O)cc1 [Tyramine] | 9.8 | 10.5 | –
16 | O=c1ccc2[n+]([O-])c3ccc(O)cc3oc-2c1 [Resazurin] | – | – | pKa (Table 1 colorants): 5.1
17 | Oc1cccc(O)c1 [Resorcinol] | 9.3 | 11.1 | –
18 | N[C@@H](CO)C(=O)O [Serine] | – | 9.0 | –

Row | Compound | pKa (1) [1] | pKa (2) [1] | further results
19 | CCCCCCN [Hexylamine] | 10.6 | – | –
20 | CCCCCCCN [Heptylamine] | 10.7 | – | –
21 | O=C(O)c1ccncc1 [4-Pyridinecarboxylic acid] | 5.0 | – | –
22 | O=C(O)c1ccccn1 [Picolinic acid] | 1.1 | 5.2 | –
23 | N=C(N)NCCC[C@H](N)C(=O)O [Arginine] | 1.8 | – | –
24 | Oc1ccccc1O [Catechol] | 9.4 | 12.8 | –
25 | NCCN [Ethylenediamine] | 6.8 | – | –
26 | CCCCCCCCCCN [Decylamine] | 10.6 | – | –
27 | O=c1[nH]c(=O)c2[nH]c(=O)[nH]c2[nH]1 [Uric acid] | 3.9 | – | –
28 | CC[N+](CC)=c1ccc2nc3c(cc(N)c4ccccc43)oc-2c1 [Nile Blue] | – | – | pKa (Table 1 colorants): 9.7
29 | Oc1ccc(O)cc1 [Hydroquinone] | 10.3 | – | –
30 | NCCCCCCN [Hexamethylenediamine] | 11.9 | 10.8 | –
31 | Cc1ccccc1C(=O)O [o-Toluic acid] | 3.9 | – | –
32 | CC(=NO)C(C)=NO [Dimethylglyoxime] | 10.7 | 12.0 | –
33 | N[C@@H](Cc1ccccc1)C(=O)O [Phenylalanine] | – | 9.3 | –
34 | O=CC(=O)O [Glyoxylic acid] | 3.2 | – | –
35 | Cc1ccc(C(=O)O)cc1 [p-Toluic acid] | 4.4 | – | –
